# Laboratory results as given in PubChem BioAssay (NCI).
# “And” between values parts separate entries of the source, which are not always exact repeats. Equal values may be shown once.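 Assay format: 96-well plates, 48-hour exposure. The concentration for 50% growth inhibition is given as GI50. At the TGI there is no net growth.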
# Columns and labels:
# Test in all cases: NCI tumour cell line growth inhibition, 48 h
# [1] = test system: CAKI-1 renal
# [2] = test system: DLD-1 colon
# [3] = test system: DU-145 prostate
# [4] = test system: HCT-15 colon
# [5] = test system: LOX IMVI melanoma
# [6] = test system: LXFL 529 NSCLC
# [7] = test system: M14 melanoma
# [8] = test system: SF-268 CNS
# [9] = test system: SK-MEL-28 melanoma
# [10] = test system: UACC-257 melanoma
SMILES,GI50 [1],TGI [1],TGI [2],TGI [3],TGI [4],GI50 [5],TGI [5],GI50 [6],TGI [6],GI50 [7],TGI [7],GI50 [8],TGI [8],GI50 [9],TGI [9],GI50 [10],TGI [10],GI50 [2],GI50 [4],GI50 [3]
COc1cc(C2c3cc4c(cc3[C@@H](Nc3cccc(O)c3)C3COC(=O)[C@H]23)OCO4)cc(OC)c1O (stereo partly specified),242 nM and 690 nM,4.59 µM,40.9 µM,1750 nM,46.4 µM,535 nM,7.3 µM,850 nM,24.9 µM,991 nM,14.1 µM,942 nM,14.1 µM,746 nM,20.7 µM,925 nM,16.9 µM,,,
CCOC(=O)NNC(=O)NC12CC3CC(CC(C3)C1)C2,,> 100 µM,> 100 µM,,> 100 µM,,> 100 µM,,> 100 µM,,> 100 µM,,> 100 µM,,> 100 µM,,> 100 µM,,,
CCCCCCCCC(=O)NCCCNCCCNC(=O)CCCCCCCC,,27.7 µM,7.7 µM,,28.2 µM,,3.19 µM,,7.79 µM,,4.15 µM,,26 µM,,25.6 µM,,19.9 µM,,,
C/C(=N/Nc1ccc([N+](=O)[O-])cc1[N+](=O)[O-])C(CC(C(=O)Nc1ccccc1C)/C(C)=N\Nc1ccc([N+](=O)[O-])cc1[N+](=O)[O-])C(=O)Nc1ccccc1C (stereo unspecified),,30 µM,> 100 µM,,> 63.5 µM,,36 µM,,27.9 µM,,46 µM,,23.7 µM,,51.1 µM,,43.9 µM,,,
CCOC(=N)CC(=O)NC(C)c1ccccc1 (stereo unspecified),,> 100 µM,> 100 µM,,> 100 µM,,> 100 µM,,> 100 µM,,> 100 µM,,> 100 µM,,> 100 µM,,> 100 µM,,,
CCCCCCCCCCCCCCCC(=O)N[C@H]1CCc2cc(OC)c(OC)c(OC)c2-c2ccc(SC)c(=O)cc21,6700 nM,80 µM and 21.8 µM,10.6 µM and 12.4 µM,,5.01 µM and 4.04 µM,,11.9 µM,1550 nM,9.54 µM and 4.92 µM,386 nM,2.86 µM and 1.89 µM,1630 nM,7.59 µM and 10.9 µM,,24.3 µM and 17.9 µM,699 nM,13.1 µM and 26.4 µM,709 nM,1540 nM,
CC[C@@]1(OC(=O)CN(C)C)C(=O)OCc2c1cc1n(c2=O)Cc2cc3ccccc3nc2-1,,2.4 µM and 0.806 µM,30.4 µM,246 nM and 484 nM,5.03 µM and 3.09 µM,< 16.1 nM,0.285 µM and 0.218 µM,577 nM,5.02 µM and 3.35 µM,42.4 nM,0.574 µM and 0.559 µM,46.4 nM,,1010 nM,,131 nM,1.12 µM and 1.31 µM,806 nM,257 nM,20.7 nM
COc1ccccc1NC(=O)C(=O)C1C(=O)Nc2ccccc2S1=O (stereo unspecified),,> 100 µM,> 100 µM,,> 100 µM,,> 100 µM,,> 100 µM,,> 100 µM,,> 100 µM,,> 100 µM,,> 100 µM,,,
CCN1CC2(C)CC[C@@H](OC)C34[C@@H]2[C@H](OC(C)=O)C2(OCO[C@@]25C[C@H](OC)C2C[C@]3(O)[C@@H]5[C@H]2O)[C@H]14,,> 100 µM,> 100 µM,,,,> 100 µM,,> 100 µM,,> 100 µM,,> 100 µM,,> 100 µM,,> 100 µM,,,
CCC1NCC(=O)c2c1[nH]c1ccccc21 (stereo unspecified),,> 100 µM,> 100 µM,,> 100 µM,,> 100 µM,,> 100 µM,,> 100 µM,,> 100 µM,,> 100 µM,,> 100 µM,,,
CC(C)=C1CCC(CN2CCCC2)C1=O (stereo unspecified),,28.9 µM,33.7 µM,,35.5 µM,,> 100 µM,,32.2 µM,,34.1 µM,,65.7 µM,,48.8 µM,,66.7 µM,,,
